The values that follow come from US9409884B2 (Rigel Pharmaceuticals, Inc., priority 2012, dated 2016).

The first test deals with AMPK. Briefly: AMPK activation, enzyme-linked immunosorbent assay. Format: biochemical. To be noted: Table 8, compounds of Table 1. In short, it runs like this: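 AMPK activation by test compounds was measured by enzyme-linked immunosorbent assay.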
Consider `O=C(NC1CCN(Cc2ccncc2)CC1)c1cncc(OC2CCN(c3ccc(C(F)(F)F)cc3)CC2)c1` [Compound 1-14, N-(1-(pyridin-4-ylmethyl)piperidin-4-yl)-5-(1-(4-(trifluoromethyl)phenyl)piperidin-4-yloxy)nicotinamide], for which the EC50 (usually the concentration at which the effect is half-maximal) is less than 100 nM. Take `O=C(NC1CN(Cc2ccncc2)C1)c1ccc(OC2CCN(c3ccc(C(F)(F)F)cc3)CC2)cn1` [Compound 1-42, N-(1-(pyridin-4-ylmethyl)azetidin-3-yl)-5-(1-(4-(trifluoromethyl)phenyl)piperidin-4-yloxy)picolinamide]: the concentration for a half-maximal effect (EC50) was 1000 to 5000 nM. Compound `O=C(NC1CCN(Cc2ccccn2)CC1)c1cc2ccc(OC3CCN(c4ccc(OC(F)(F)F)cc4)CC3)cc2o1` [Compound 1-92, N-(1-(pyridin-2-ylmethyl)piperidin-4-yl)-6-(1-(4-(trifluoromethoxy)phenyl)piperidin-4-yloxy)benzofuran-2-carboxamide] registered an EC50 of 500 to 1000 nM. `N#Cc1ccc(CN2CCC(NC(=O)c3sc4cc(OC5CCN(c6ccc(C(F)(F)F)cc6)CC5)ccc4c3Cl)CC2)cc1` [Compound 1-154, 3-chloro-N-(1-(4-cyanobenzyl)piperidin-4-yl)-6-(1-(4-(trifluoromethyl)phenyl)piperidin-4-yloxy)benzo[b] thiophene-2-carboxamide] showed an EC50 of less than 100 nM. With `N#Cc1ccc(CN2CCC(NC(=O)c3ccc(OC4CCN(c5ccc(C#N)cc5)CC4)cn3)CC2)cc1` [Compound 1-2, N-(1-(4-cyanobenzyl)piperidin-4-yl)-5-(1-(4-cyanophenyl)piperidin-4-yloxy) picolinamide], the EC50 is less than 100 nM.

In turn, `N#Cc1ccc(CN2CCC(NC(=O)c3ccnc(OC4CCN(c5ccc(C(F)(F)F)cc5)CC4)c3)CC2)cc1` [Compound 1-21, N-(1-(4-cyanobenzyl)piperidin-4-yl)-2-(1-(4-(trifluoromethyl)phenyl)piperidin-4-yloxy) isonicotinamide] showed an EC50 of 100 to 500 nM. `CC(C)(C)OC(=O)N1CC[C@@H](NC(=O)c2ccc(OC3CCN(c4ccc(C(F)(F)F)cc4)CC3)cn2)C1` [Compound 1-23, (R)-tert-butyl 3-(5-(1-(4-(trifluoromethyl)phenyl)piperidin-4-yloxy)picolinamido) pyrrolidine-1-carboxylate]: the EC50 was 100 to 500 nM.

The test is the same for the next values; noted with them: Table 9, compounds of Table 2.
Regarding `N#Cc1ccc(CN2CCC(NC(=O)c3ccc4[nH]c5c(c4c3)CN(Cc3ccccc3)CC5)CC2)cc1` [Compound 2-4, 2-benzyl-N-(1-(4-cyanobenzyl)piperidin-4-yl)-2,3,4,5-tetrahydro-1H-pyrido[4,3-b]indole-8-carboxamide], the EC50 lay in the range of 1000 to 5000 nM. For `O=C(NC1CCN(S(=O)(=O)c2cccnc2)CC1)c1ccc2[nH]c3c(c2c1)CN(Cc1ccc(C(F)(F)F)cc1)CC3` [Compound 2-22, N-(1-(pyridin-3-ylsulfonyl)piperidin-4-yl)-2-(4-(trifluoromethyl)benzyl)-2,3,4,5-tetrahydro-1H-pyrido[4,3-b]indole-8-carboxamide], the EC50 lay in the range of 500 to 1000 nM.

The test is the same for the next values; noted with them: Table 10, compounds of Table 3.
`N#Cc1ccc(CN2CCC(NC(=O)c3cn4ccc(OC5CCN(c6ccc(C(F)(F)F)cc6)CC5)cc4n3)CC2)cc1` [Compound 3-18, N-(1-(4-cyanobenzyl)piperidin-4-yl)-7-(1-(4-(trifluoromethyl)phenyl)piperidin-4-yloxy)imidazo[1,2-a]pyridine-2-carboxamide] showed an EC50 of less than 100 nM.

Still in this test, the particulars now being: Table 11, compounds of Table 4.
Consider `O=C(NC1CCN(Cc2ccc(OC(F)(F)F)cc2)C[C@H]1F)c1ccc(C(=O)N2CCN(Cc3ccc(S(=O)(=O)N4CCCC4)cc3)CC2)nc1` (stereo partly drawn) [Compound 4-15, N-((3,4-trans)-3-fluoro-1-(4-(trifluoromethoxy)benzyl)piperidin-4-yl)-6-(4-(4-(pyrrolidin-1-ylsulfonyl)benzyl)piperazine-1-carbonyl)nicotinamide], for which the EC50 is less than 500 nM.

Staying with this test, now noted: Table 12, compounds of Table 5.
On to `O=C(NC1CCN(Cc2ccccc2)CC1)c1cccc(OC2CCN(c3ccccn3)CC2)c1` [Compound 5-86, N-(1-benzylpiperidin-4-yl)-3-(1-(pyridin-2-yl)piperidin-4-yloxy)benzamide], for which the EC50 was less than 1000 nM. Consider `N#Cc1ccc(N2CCC(Oc3ccc(C(=O)NC4CCN(Cc5ccccc5)CC4)c(Cl)c3)CC2)cc1` [Compound 5-49, N-(1-benzylpiperidin-4-yl)-2-chloro-4-(1-(4-cyanophenyl)piperidin-4-yloxy)benzamide], for which the concentration for a half-maximal effect (EC50) was less than 1000 nM.

Turning to `O=C(NC1CCN(Cc2ccccc2)CC1)c1ccc(OC2CCN(c3ccc(C(F)(F)F)cc3)CC2)c(Cl)c1` [Compound 5-17], the EC50 is less than 1000 nM. Compound `COc1cc(C(=O)NC2CCN(Cc3ccccc3)CC2)ccc1OC1CCN(Cc2ccccc2)CC1` [Compound 5-2, N-(1-benzylpiperidin-4-yl)-4-(1-benzylpiperidin-4-yloxy)-3-methoxybenzamide] displayed an EC50 of less than 1000 nM.

In turn, `COc1ccc(CN2CCC(NC(=O)c3cccc(OC4CCN(Cc5ccc(N6CCOCC6)cc5)CC4)c3)CC2)cc1` [Compound 5-109, N-(1-(4-methoxybenzyl)piperidin-4-yl)-3-(1-(4-morpholinobenzyl)piperidin-4-yloxy)benzamide] returned an EC50 of less than 1000 nM. The same measure, in the same setting: for `N#Cc1ccc(CN2CCC(NC(=O)c3cccc(OC4CCN(c5ccc(C#N)cc5)CC4)c3)CC2)cc1` [Compound 5-115, N-(1-(4-cyanobenzyl)piperidin-4-yl)-3-(1-(4-cyanophenyl)piperidin-4-yloxy)benzamide] the value was less than 1000 nM. In the case of `O=C(NC1CCN(Cc2ccccc2)CC1)c1ccc(OC2CCN(Cc3ccc(Cl)cc3)CC2)c(Cl)c1` [Compound 5-65, N-(1-benzylpiperidin-4-yl)-3-chloro-4-(1-(4-chlorobenzyl)piperidin-4-yloxy)benzamide], the EC50 is less than 1000 nM.

Staying with this test, now noted: Table 13, compounds of Table 6.
`COc1ccc(CN2CCC(NC(=O)c3cc4cc(C(=O)N5CCN(Cc6cccc(S(C)(=O)=O)c6)CC5)ccc4o3)CC2)cc1F` [Compound 6-141, N-(1-(3-fluoro-4-methoxybenzyl)piperidin-4-yl)-5-(4-(3-(methylsulfonyl)benzyl)piperazine-1-carbonyl) benzofuran-2-carboxamide] had an EC50 of less than 100 nM. On to `N#Cc1ccc(CN2CCC(NC(=O)c3cc4cc(NC(=O)C5CN(c6ccc(C#N)cc6)C5)ccc4o3)CC2)cc1` [Compound 6-74, N-(2-(1-(4-cyanobenzyl)piperidin-4-ylcarbamoyl)benzofuran-5-yl)-1-(4-cyanophenyl)azetidine-3-carboxamide], for which the EC50 is 100 to 1000 nM.

Consider `N#Cc1ccc(CN2CCC(NC(=O)c3cc4cc(CN5CCC(Oc6ccc(C(F)(F)F)cc6)CC5)ccc4o3)CC2)cc1` [Compound 6-27, N-(1-(4-cyanobenzyl)piperidin-4-yl)-5-((4-(4-(trifluoromethyl)phenoxy)piperidin-1-yl)methyl) benzofuran-2-carboxamide], for which the EC50 is less than 100 nM. `CC(=O)c1ccc(Oc2ccc(NC(=O)c3cc4ccc(C(=O)N5CCN(Cc6ccc(S(C)(=O)=O)cc6)CC5)cc4o3)cn2)cc1` [Compound 6-6, N-(6-(4-acetylphenoxy)pyridin-3-yl)-6-(4-(4-(methylsulfonyl)benzyl)piperazine-1-carbonyl) benzofuran-2-carboxamide] had an EC50 of less than 100 nM. On to `N#Cc1ccc(CN2CCC(NC(=O)c3cc4cc(C(=O)N5CCC(Oc6ccc(F)cc6)CC5)ccc4o3)CC2)cc1` [Compound 6-19, N-(1-(4-cyanobenzyl)piperidin-4-yl)-5-(4-(4-fluorophenoxy)piperidine-1-carbonyl)benzofuran-2-carboxamide], for which the EC50 is less than 100 nM. Still for that read-out and setting: the same measure for `N#Cc1ccc(CN2CCC(NC(=O)c3cc4cc(C(=O)N5CCN(c6cc(C(F)(F)F)cc(C(F)(F)F)c6)CC5)ccc4o3)CC2)cc1` [Compound 6-117, 5-(4-(3,5-bis(trifluoromethyl)phenyl)piperazine-1-carbonyl)-N-(1-(4-cyanobenzyl)piperidin-4-yl)benzofuran-2-carboxamide]: 1000 to 10000 nM.

Staying with this test, now noted: Table 14, compounds of Table 7.
Compound `CS(=O)(=O)c1ccc(OC2CCN(C(=O)c3ccc(C(=O)Nc4ccc(Oc5ccc(S(F)(F)(F)(F)F)cc5)nc4)nc3)CC2)cc1` [Compound 7-2, 5-(4-(4-(methylsulfonyl)phenoxy)piperidine-1-carbonyl)-N-(6-(4-(pentafluorosulfanyl)phenoxy)pyridin-3-yl)picolinamide] showed an EC50 of less than 1000 nM. `CS(=O)(=O)c1ccc(CN2CCN(c3ccc(C(=O)NC4CCN(Cc5ccc(C#N)cc5)CC4)cn3)CC2)cc1` [Compound 7-79, N-(1-(4-cyanobenzyl)piperidin-4-yl)-6-(4-(4-(methylsulfonyl)benzyl)piperazin-1-yl)nicotinamide] showed an EC50 of 10000 to 20000 nM. As to `COc1ccc(CN2CCC(NC(=O)c3ccc(C(=O)N4CCC(C(=O)c5ccc(OC)cc5)CC4)nc3)[C@@H](F)C2)cc1` (stereo partly drawn) [Compound 7-21, N-((3,4-trans)-3-fluoro-1-(4-methoxybenzyl)piperidin-4-yl)-6-(4-(4-methoxybenzoyl)piperidine-1-carbonyl)nicotinamide], the EC50 was less than 1000 nM. Consider `COc1ccc(C(=O)C2CCN(C(=O)c3ccc(C(=O)NC4CCN(Cc5ccc(C#N)c(F)c5)C[C@@H]4C)cn3)CC2)cc1` (stereo partly drawn) [Compound 7-98, N-((3,4-cis)-1-(4-cyano-3-fluorobenzyl)-3-methylpiperidin-4-yl)-6-(4-(4-methoxybenzoyl)piperidine-1-carbonyl)nicotinamide], for which the EC50 is less than 1000 nM. The compound `COc1ccc(C(=O)C2CCN(C(=O)c3ccc(C(=O)NC4CCN(Cc5ccc(C#N)c(OC)c5)C[C@@H]4C)cn3)CC2)cc1` (stereo partly drawn) [Compound 7-99, N-((3,4-cis)-1-(4-cyano-3-methoxybenzyl)-3-methylpiperidin-4-yl)-6-(4-(4-methoxybenzoyl)piperidine-1-carbonyl)nicotinamide] showed an EC50 of less than 1000 nM. `CC(C)Oc1ccc(CN2CCC(NC(=O)c3ccc(C(=O)N4CCC(C(=O)c5ccc(N6CCCC6)cc5)CC4)nc3)CC2)cc1` [Compound 7-116, N-(1-(4-isopropoxybenzyl)piperidin-4-yl)-6-(4-(4-(pyrrolidin-1-yl)benzoyl)piperidine-1-carbonyl)nicotinamide] had an EC50 of less than 1000 nM.
